The values that follow come from patent publication EP4737454A1, “GLP-1 RECEPTOR AGONIST, AND PREPARATION METHOD THEREFOR AND USE THEREOF” (Wayne Biotechnology Co., Ltd., priority 2023, dated 2025).

Chain of Human GLP-1R (P43220 24-463): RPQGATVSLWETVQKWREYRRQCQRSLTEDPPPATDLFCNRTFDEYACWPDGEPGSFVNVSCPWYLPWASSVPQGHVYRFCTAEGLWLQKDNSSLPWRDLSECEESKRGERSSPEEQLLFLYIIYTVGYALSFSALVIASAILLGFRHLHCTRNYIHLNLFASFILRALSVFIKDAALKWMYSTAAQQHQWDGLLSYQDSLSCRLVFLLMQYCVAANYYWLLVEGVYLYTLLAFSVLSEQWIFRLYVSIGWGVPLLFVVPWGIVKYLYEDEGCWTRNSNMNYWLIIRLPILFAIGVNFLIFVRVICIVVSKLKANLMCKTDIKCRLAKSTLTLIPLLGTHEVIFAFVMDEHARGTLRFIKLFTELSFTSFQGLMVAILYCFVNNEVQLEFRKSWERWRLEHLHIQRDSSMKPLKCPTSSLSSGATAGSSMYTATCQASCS

This experiment deals with Human GLP-1R (Homo sapiens, UniProt P43220). Description: cAMP level determination in human GLP-1R stably transfected HEK293T cells (HTRF cAMP kit). The experiment is classed as cell-based. The conditions noted are these: 37°C 30 min. As for the experimental part:
Human GLP-1R HEK293T stably transfected cells were digested with trypsin, terminated with DMEM total (without p/s), centrifuged and washed twice with 1X Stimulation buffer, then resuspended in 1X stimulation buffer and counted. The cells were then prepared as a 1 Million/mL cell suspension in stimulation buffer. Compound powder was first prepared as a 10 mM stock solution in DMSO, then diluted to 2 mM with DMSO, and further prepared as 2X compound in 1X stimulation buffer (Cisbio kit buffer with freshly added IBMX at a final concentration of 0.5 mM). The top dose final concentration was 2000 nM, with a final DMSO concentration of 0.2%, diluted in a 1:3 gradient for 11 gradients.
According to the layout, 5 µl of compound was added to each well; Min wells contained 100 nM GLP-1, and Max wells contained 0.2% DMSO in 1X stimulation buffer. 5 µl of cell suspension was added to each well, centrifuged at 300 rpm at room temperature for 1 min, then incubated at 37°C for 30 min. 2X cAMP standards were prepared in 1X Stimulation buffer, with a top final concentration of 2.8 µM, diluted in a 1:3 gradient for 12 doses. According to the layout, 10 µl was added to each well. Finally, d2 and antibody were diluted 20-fold in 1X Detection buffer (Cisbio kit buffer), and 5 µl of each was added to each well according to the layout. After centrifugation at 300 rpm at room temperature for 1 min, the plate was incubated at room temperature for 2 hr.
Stimulation% was calculated based on Min and Max readings (665nm/615nm ratio) using the formula: 100*(ratio Max well - ratio test well)/(ratio Max well - ratio Min well). The cAMP concentration in each test well was derived from the cAMP standard curve, and the data was analyzed using GraphPad Prism 9 to plot four-parameter fit curves and calculate EC50 values using the formula: Y=Bottom + (Top-Bottom)/(1+10^((LogEC50-X)*HillSlope)). Table 1: cAMP Level Determination in Human GLP-1R Stably Transfected HEK293T Cells
A general note: Changes in cAMP serve as a functional read-out for many G protein-coupled receptors.
As for `Cc1cc(-n2nc3c(c2-n2ccn(-c4ccc(N(C)C(=O)C5CC5)c(F)c4)c2=O)[C@H](C)N(C(=O)c2cc4cc([C@@H]5CCOC(C)(C)C5)ccc4n2[C@@]2(c4noc(=O)[nH]4)C[C@@H]2C)CC3)cc(C)c1F` [Compound 63a], the EC50 (in general, the concentration at which the effect is half-maximal) was determined as 146 nM.
To `Cc1cc(-n2nc3c(c2-n2ccn(-c4ccc(C(=O)N(C)C5CC5)nn4)c2=O)[C@H](C)N(C(=O)c2cc4cc(C5CCOC(C)(C)C5)ccc4n2[C@@]2(c4nc(=O)o[nH]4)C[C@@H]2C)CC3)cc(C)c1F` (stereo partly drawn) [Compound 30] belongs 206 nM; to `Cc1cc(-n2nc3c(c2-n2ccn(-c4ccc(N(C)C5CC5)c(OC(F)(F)F)c4)c2=O)[C@H](C)N(C(=O)c2cc4cc(C5CCOC(C)(C)C5)ccc4n2[C@@]2(c4noc(=O)[nH]4)C[C@@H]2C)CC3)cc(C)c1F` (stereo partly drawn) [Compound 66], 67.8 nM.
As for `Cc1cc(-n2nc3c(c2-n2ccn(-c4cccc(C(=O)NC5CC5)c4)c2=O)[C@H](C)N(C(=O)c2cc4cc(C5CCOC(C)(C)C5)ccc4n2[C@@]2(c4nc(=O)o[nH]4)C[C@@H]2C)CC3)cc(C)c1F` (stereo partly drawn) [Compound 47], the figure is 65.1 nM; as for `Cc1cc(-n2nc3c(c2-n2ccn(-c4ccc(N(C)C5CC5)c(F)c4)c2=O)[C@H](C)N(C(=O)c2cc4cc(C5CCOC(C)(C)C5)ccc4n2[C@@]2(c4noc(=O)[nH]4)C[C@@H]2C)CC3)cc(C)c1F` (stereo partly drawn) [Compound 68], 18 nM.
With `Cc1cc(-n2nc3c(c2-n2ccn(-c4ccc5c(c4)CCCS5(=O)=O)c2=O)[C@H](C)N(C(=O)c2cc4cc(C5CCOC(C)(C)C5)ccc4n2[C@@]2(c4nc(=O)o[nH]4)C[C@@H]2C)CC3)cc(C)c1F` (stereo partly drawn) [Compound 58], it took 9.93 nM to reach a half-maximal effect (EC50).
For the compound `Cc1cc(-n2nc3c(c2-n2ccn(-c4ccccc4C#N)c2=O)[C@H](C)N(C(=O)c2cc4cc(C5CCOC(C)(C)C5)ccc4n2[C@@]2(c4nc(=O)o[nH]4)C[C@@H]2C)CC3)cc(C)c1F` (stereo partly drawn) [Compound 89], it took 201 nM to reach a half-maximal effect (EC50).
In turn, `Cc1cc(-n2nc3c(c2-n2ccn(-c4ccc(C#N)c(C5CC5)c4)c2=O)[C@H](C)N(C(=O)c2cc4cc(C5CCOC(C)(C)C5)ccc4n2[C@@]2(c4nc(=O)o[nH]4)C[C@@H]2C)CC3)cc(C)c1F` (stereo partly drawn) [Compound 79] returned an EC50 of 17.8 nM.
Consider `Cc1cc(-n2nc3c(c2-n2ccn(-c4cc(F)cc(C#N)c4)c2=O)[C@H](C)N(C(=O)c2cc4cc(C5CCOC(C)(C)C5)ccc4n2[C@@]2(c4nc(=O)o[nH]4)C[C@@H]2C)CC3)cc(C)c1F` (stereo partly drawn) [Compound 92], for which the EC50 is 43.5 nM.
As to `Cc1cc(-n2nc3c(c2-n2ccn(-c4ccc5c(c4)S(=O)(=O)CCC5)c2=O)[C@H](C)N(C(=O)c2cc4cc(C5CCOC(C)(C)C5)ccc4n2[C@@]2(c4nc(=O)o[nH]4)C[C@@H]2C)CC3)cc(C)c1F` (stereo partly drawn) [Compound 59], the EC50 was determined as 15 nM.
To `Cc1cc(-n2ccn(-c3c4c(nn3-c3cc(C)c(F)c(C)c3)CCN(C(=O)c3cc5cc(C6CCOC(C)(C)C6)ccc5n3[C@@]3(c5nc(=O)o[nH]5)C[C@@H]3C)[C@H]4C)c2=O)ccc1C(=O)N(C)C1(C)CC1` (stereo partly drawn) [Compound 35] belongs 20 nM; to `Cc1cc(-n2nc3c(c2-n2ccn(-c4ccc5c(c4)C=CS5(=O)=O)c2=O)[C@H](C)N(C(=O)c2cc4cc([C@H]5CCOC(C)(C)C5)ccc4n2[C@@]2(c4noc(=O)[nH]4)C[C@@H]2C)CC3)cc(C)c1F` [Compound 62b], 4.53 nM.
For `Cc1cc(-n2nc3c(c2-n2ccn(-c4ccc(C#N)cc4F)c2=O)[C@H](C)N(C(=O)c2cc4cc([C@@H]5CCOC(C)(C)C5)ccc4n2[C@@]2(c4nc(=O)o[nH]4)C[C@@H]2C)CC3)cc(C)c1F` [Compound 81a], the concentration for a half-maximal effect (EC50) was 387 nM.
As for `Cc1cc(-n2nc3c(c2-n2ccn(-c4ccc(N(C)C(=O)C5CC5)c(F)c4)c2=O)[C@H](C)N(C(=O)c2cc4cc([C@H]5CCOC(C)(C)C5)ccc4n2[C@@]2(c4noc(=O)[nH]4)C[C@@H]2C)CC3)cc(C)c1F` [Compound 63b], a half-maximal effect (EC50) was put at 6.4 nM.
In turn, `C[C@H]1c2c(nn(-c3ccc(F)c(C4CC4)c3)c2-n2ccn(-c3ccc4c(cnn4C)c3F)c2=O)CCN1C(=O)c1cc2cc([C@H]3CCOC(C)(C)C3)ccc2n1[C@@]1(c2nc(=O)o[nH]2)C[C@@H]1C` [Compound 1b] displayed an EC50 of 17.5 nM.
`Cc1cc(C#N)ccc1-n1ccn(-c2c3c(nn2-c2cc(C)c(F)c(C)c2)CCN(C(=O)c2cc4cc(C5CCOC(C)(C)C5)ccc4n2[C@@]2(c4nc(=O)o[nH]4)C[C@@H]2C)[C@H]3C)c1=O` (stereo partly drawn) [Compound 88] came in with an EC50 of 205 nM.
`Cc1cc(-n2nc3c(c2-n2ccn(-c4ccc(C#N)c(C(F)(F)F)c4)c2=O)[C@H](C)N(C(=O)c2cc4cc(C5CCOC(C)(C)C5)ccc4n2[C@@]2(c4nc(=O)o[nH]4)C[C@@H]2C)CC3)cc(C)c1F` (stereo partly drawn) [Compound 86] returned an EC50 of 13.8 nM.
`Cc1cc(-n2nc3c(c2-n2ccn(-c4ccc(C(=O)N5CCCC5)cc4)c2=O)[C@H](C)N(C(=O)c2cc4cc(C5CCOC(C)(C)C5)ccc4n2[C@@]2(c4nc(=O)o[nH]4)C[C@@H]2C)CC3)cc(C)c1F` (stereo partly drawn) [Compound 22] registered an EC50 of 50.7 nM.
Compound `Cc1cc(-n2nc3c(c2-n2ccn(-c4ccc(C#N)cc4)c2=O)[C@H](C)N(C(=O)c2cc4cc(C5CCOC(C)(C)C5)ccc4n2[C@@]2(c4nc(=O)o[nH]4)C[C@@H]2C)CC3)cc(C)c1F` (stereo partly drawn) [Compound 90] showed an EC50 of 15.1 nM.
Take `Cc1cc(-n2ccn(-c3c4c(nn3-c3cc(C)c(F)c(C)c3)CCN(C(=O)c3cc5cc(C6CCOC(C)(C)C6)ccc5n3[C@@]3(c5nc(=O)o[nH]5)C[C@@H]3C)[C@H]4C)c2=O)ccc1C#N` (stereo partly drawn) [Compound 87]: a half-maximal effect (EC50) was put at 17.6 nM.
To `Cc1cc(-n2nc3c(c2-n2ccn(-c4ccc(C#N)c(Cl)c4F)c2=O)[C@H](C)N(C(=O)c2cc4cc(C5CCOC(C)(C)C5)ccc4n2[C@@]2(c4nc(=O)o[nH]4)C[C@@H]2C)CC3)cc(C)c1F` (stereo partly drawn) [Compound 97] belongs 7.84 nM.
For the compound `Cc1cc(-n2nc3c(c2-n2ccn(-c4ccc5c(c4)S(=O)(=O)CC5)c2=O)[C@H](C)N(C(=O)c2cc4cc(C5CCOC(C)(C)C5)ccc4n2[C@@]2(c4nc(=O)o[nH]4)C[C@@H]2C)CC3)cc(C)c1F` (stereo partly drawn) [Compound 57], the midpoint of the response, the EC50, lay at 15.8 nM.
Turning to `Cc1cc(-n2nc3c(c2-n2ccn(-c4cc5c(cc4F)S(=O)(=O)CC5)c2=O)[C@H](C)N(C(=O)c2cc4cc(C5CCOC(C)(C)C5)ccc4n2[C@@]2(c4nc(=O)o[nH]4)C[C@@H]2C)CC3)cc(C)c1F` (stereo partly drawn) [Compound 61], the EC50 was 10.8 nM.
In the case of `Cc1cc(-n2nc3c(c2-n2ccn(-c4ccccc4C(=O)N(C)C4CC4)c2=O)[C@H](C)N(C(=O)c2cc4cc(C5CCOC(C)(C)C5)ccc4n2[C@@]2(c4nc(=O)o[nH]4)C[C@@H]2C)CC3)cc(C)c1F` (stereo partly drawn) [Compound 39], a half-maximal effect (EC50) was put at 11.3 nM.
With `Cc1cc(-n2nc3c(c2-n2ccn(-c4cc(F)c(C(=O)N(C)C5CC5)c(F)c4)c2=O)[C@H](C)N(C(=O)c2cc4cc(C5CCOC(C)(C)C5)ccc4n2[C@@]2(c4nc(=O)o[nH]4)C[C@@H]2C)CC3)cc(C)c1F` (stereo partly drawn) [Compound 52], the EC50 was 11 nM.
`Cc1cc(-n2nc3c(c2-n2ccn(-c4ccc(N(C)C(=O)C5CC5)c(C(F)(F)F)c4)c2=O)[C@H](C)N(C(=O)c2cc4cc([C@H]5CCOC(C)(C)C5)ccc4n2[C@@]2(c4nc(=O)o[nH]4)C[C@@H]2C)CC3)cc(C)c1F` [Compound 74] yielded a concentration for a half-maximal effect (EC50) of 3.25 nM.
Regarding `Cc1cc(-n2nc3c(c2-n2ccn(-c4ccc(C(=O)N(C)C5CC5)c(OC(F)F)c4)c2=O)[C@H](C)N(C(=O)c2cc4cc(C5CCOC(C)(C)C5)ccc4n2[C@@]2(c4nc(=O)o[nH]4)C[C@@H]2C)CC3)cc(C)c1F` (stereo partly drawn) [Compound 31], the 50% effective concentration (EC50) was 15.1 nM.
Regarding `Cc1cc(-n2nc3c(c2-n2ccn(-c4ccc(C(=O)N(C)C5(C)CC5)c(F)c4)c2=O)[C@H](C)N(C(=O)c2cc4cc(C5CCOC(C)(C)C5)ccc4n2[C@@]2(c4nc(=O)o[nH]4)C[C@@H]2C)CC3)cc(C)c1F` (stereo partly drawn) [Compound 51], the response was half-maximal at 8.76 nM (EC50).
As for `Cc1cc(-n2nc3c(c2-n2ccn(-c4ccc(C#N)cn4)c2=O)[C@H](C)N(C(=O)c2cc4cc(C5CCOC(C)(C)C5)ccc4n2[C@@]2(c4nc(=O)o[nH]4)C[C@@H]2C)CC3)cc(C)c1F` (stereo partly drawn) [Compound 85], the response was half-maximal at 50.2 nM (EC50).
In turn, `Cc1cc(-n2nc3c(c2-n2ccn(-c4ccc(C#N)c(F)c4F)c2=O)[C@H](C)N(C(=O)c2cc4cc(C5CCOC(C)(C)C5)ccc4n2[C@@]2(c4nc(=O)o[nH]4)C[C@@H]2C)CC3)cc(C)c1F` (stereo partly drawn) [Compound 93] yielded an EC50 of 15.1 nM.
As for `Cc1cc(-n2nc3c(c2-n2ccn(-c4ccc(N(C)C(=O)C5(C)CC5)c(F)c4)c2=O)[C@H](C)N(C(=O)c2cc4cc([C@H]5CCOC(C)(C)C5)ccc4n2[C@@]2(c4nc(=O)o[nH]4)C[C@@H]2C)CC3)cc(C)c1F` [Compound 71], the figure is 4.01 nM.
`Cc1cc(-n2nc3c(c2-n2ccn(-c4ccc(N(C)C5CC5)c(Cl)c4)c2=O)[C@H](C)N(C(=O)c2cc4cc([C@H]5CCOC(C)(C)C5)ccc4n2[C@@]2(c4noc(=O)[nH]4)C[C@@H]2C)CC3)cc(C)c1F` [Compound 67b] returned an EC50 of 11.2 nM.
To `Cc1cc(-n2nc3c(c2-n2ccn(-c4cccc(C#N)c4)c2=O)[C@H](C)N(C(=O)c2cc4cc(C5CCOC(C)(C)C5)ccc4n2[C@@]2(c4nc(=O)o[nH]4)C[C@@H]2C)CC3)cc(C)c1F` (stereo partly drawn) [Compound 80] belongs 11.5 nM.
